Laboratory results: US20240316074A1 (priority 2021, published 2024)
≈ marks a conversion by molar mass, not a printed value.

Assays:
Format in all cases: cell-based
[1] = system: SARS-CoV-2 spike pseudotyped lentivirus; assay: organism not typed; details: HEK-293T, read-out: IC50, concentration which reduced pseudovirus infections by half
[2] = system: SARS-CoV-2 variant B.1.1.7; assay: microbe, parasite or virus in culture; details: Severe acute respiratory syndrome coronavirus 2, Vero C1008
[3] = system: SARS-CoV-2 variant B.1.351; assay: microbe, parasite or virus in culture; details: Severe acute respiratory syndrome coronavirus 2, Vero C1008

SMILES | IC50 [1] [µg/mL] | IC50 [2] [µg/mL] | IC50 [3] [µg/mL]
C=C(C)[C@@H]1CCC(C)=C[C@H]1c1c(O)cc(CCCCC)c(C(=O)O)c1O [CBDA, Cannabidiolic acid] | 7.7 (≈ 21.5 µM) | 11 (≈ 30.7 µM) | 19 (≈ 53 µM)
CCCCCc1cc(O)c(C/C=C(\C)CCC=C(C)C)c(O)c1C(=O)O [CBGA, Cannabigerolic acid] | 8.4 (≈ 23.3 µM) | 26 (≈ 72.1 µM) | 37 (≈ 103 µM)
